Test results taken from patent US8658416B2, “Toxin-eating bacteria and bioremediation” (priority 2008, dated 2014).

Legend:
[1] = system: clonal bacterial isolates from 11 diverse soils; type: cell-based, soil bacteria; details: antibiotic as sole carbon source at 1 g/L in SCS media pH 5.5, 22° C., positive growth at least 10^8 cells/mL
Method: The pH was adjusted to 5.5 using HCl, and the media was sterilized through a 0.22 μm filter. Solid medium was prepared by adding 15 g agar per liter of liquid SCS media followed by autoclaving before adding antibiotics.
Clonal isolates from the liquid cultures were obtained by plating cultures out on SCS-antibiotic agar medium and resulting single colonies were picked and re-streaked on corresponding plates. Three colonies each were then inoculated into fresh SCS-antibiotic liquid media (5 mL) to confirm clonal phenotype. Final culture growth was recorded after 1 month incubation without shaking at 22° C. and cultures with at least 10^8 cells/mL were assayed as positive growth.
All antibiotics used were purchased from Sigma-Aldrich at the highest purities available.

[2] = Un-inoculated media controls monitored by HPLC (antibiotic stability in SCS medium); type: physicochemical; details: 20 or 28 days, HPLC at 214 nm
Method: Representative isolates capable of growth on penicillin and carbenicillin as sole carbon source were selected for analysis of antibiotic removal from the growth media by High Performance Liquid Chromatography (HPLC). 2 μL of these cultures were re-inoculated into fresh SCS-antibiotic medium (5 mL) and allowed to grow for 28 days. Samples of the cultures and un-inoculated media controls were taken at regular intervals throughout the 28 day period and the catabolism of penicillin and carbenicillin was monitored at 214 nm by HPLC of filtered media from samples using a Hewlett Packard 1090 Liquid Chromatograph and a Vydac C-18 column. HPLC was performed at a flow rate of 0.3 mL/min with an acetonitrile gradient going from 5% to 65% in 30 minutes in the presence of 0.1% trifluoroacetic acid.

Row | SMILES | soils from which clonal isolates capable of subsisting on the antibiotic were obtained [1] | antibiotic peak in the un-inoculated control over the same time course [2]
1 | CC1(C)S[C@@H]2[C@H](NC(=O)C(C(=O)O)c3ccccc3)C(=O)N2[C@H]1C(=O)O (stereo partly drawn) [carbenicillin, Carbenicillin] | all the soils tested | remained relatively unchanged
2 | Cc1onc(-c2c(Cl)cccc2Cl)c1C(=O)N[C@@H]1C(=O)N2[C@@H]1SC(C)(C)[C@@H]2C(=O)O [dicloxacillin, Dicloxacillin] | 9 out of 11 soils | –
3 | CCn1cc(C(=O)O)c(=O)c2ccc(C)nc21 [nalidixic acid, Nalidixic acid] | a majority of the soils | –
4 | CC1(C)S[C@@H]2[C@H](NC(=O)Cc3ccccc3)C(=O)N2[C@H]1C(=O)O [penicillin, Penicillin G] | all the soils tested | remained the dominant peak
